Measured values: patent publication US6531471B2, “Morpholinone and morpholine derivatives and uses thereof” (Synaptic Pharmaceutical Corporation, priority 1998, dated 2003)
Counter-ions that a name gives are not always drawn.

Assays:
human α1b receptor = molecular target: T1, human α1b receptor (Homo sapiens, UniProt P35368); assay: Radioligand binding assay at cloned human α1b adrenergic receptor; conditions: [3H]prazosin 0.5 nM, membrane preparations of transfected LM(tk−) cells, read-out: hα1b Ki
T1 construct: host or cells: LM(tk−) cells, membrane preparation
T1 sequence (P35368 1-520): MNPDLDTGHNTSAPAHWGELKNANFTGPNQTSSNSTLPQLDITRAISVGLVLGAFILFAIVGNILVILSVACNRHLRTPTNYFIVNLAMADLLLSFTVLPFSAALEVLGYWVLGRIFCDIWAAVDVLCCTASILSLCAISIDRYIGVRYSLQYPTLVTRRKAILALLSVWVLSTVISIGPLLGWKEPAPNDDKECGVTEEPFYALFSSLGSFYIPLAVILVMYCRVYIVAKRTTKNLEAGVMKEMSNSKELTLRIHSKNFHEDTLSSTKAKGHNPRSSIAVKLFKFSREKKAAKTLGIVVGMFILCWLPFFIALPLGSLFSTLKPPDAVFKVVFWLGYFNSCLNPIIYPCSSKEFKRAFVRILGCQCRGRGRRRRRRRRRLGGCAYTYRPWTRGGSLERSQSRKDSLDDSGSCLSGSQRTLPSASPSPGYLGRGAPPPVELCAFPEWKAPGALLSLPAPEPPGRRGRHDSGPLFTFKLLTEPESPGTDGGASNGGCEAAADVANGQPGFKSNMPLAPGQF
Experimental: (§1) These cell lines were prepared by transfecting the cloned cDNA or cloned genomic DNA or constructs containing both genomic DNA and cDNA encoding the human α-adrenergic receptors as follows:
The construct involved ligating the full-length containing EcoRI brainstem cDNA fragment from λ ZapII into the expression vector. Stable cell lines were selected as described above.
(§2) Radioligand Binding Assays for α1 receptors: Transfected cells from culture flasks were scraped into 5 ml of 5 mM Tris-HCl, 5 mM EDTA, pH 7.5, and lysed by sonication. The cell lysates were centrifuged at 1000 rpm for 5 min at 4° C., and the supernatant was centrifuged at 30,000×g for 20 min at 4° C. The pellet was suspended in 50 mM Tris-HCl, 1 mM MgCl2, and 0.1% ascorbic acid at pH 7.5. Binding of the α1 antagonist [^3H]prazosin (0.5 nM, specific activity 76.2 Ci/mmol) to membrane preparations of LM(tk−) cells was done in a final volume of 0.25 ml and incubated at 37° C. for 20 min. Nonspecific binding was determined in the presence of […] phentolamine. The reaction was stopped by filtration through GF/B filters using a cell harvester.

human α1a receptor = molecular target: T2, human α1a receptor (Homo sapiens, UniProt P35348); assay: Radioligand binding assay at cloned human α1a adrenergic receptor; conditions: [3H]prazosin 0.5 nM, membrane preparations of transfected LM(tk−) cells, read-out: hα1a Ki
T2 construct: host or cells: LM(tk−) cells, membrane preparation
T2 sequence (P35348 1-466): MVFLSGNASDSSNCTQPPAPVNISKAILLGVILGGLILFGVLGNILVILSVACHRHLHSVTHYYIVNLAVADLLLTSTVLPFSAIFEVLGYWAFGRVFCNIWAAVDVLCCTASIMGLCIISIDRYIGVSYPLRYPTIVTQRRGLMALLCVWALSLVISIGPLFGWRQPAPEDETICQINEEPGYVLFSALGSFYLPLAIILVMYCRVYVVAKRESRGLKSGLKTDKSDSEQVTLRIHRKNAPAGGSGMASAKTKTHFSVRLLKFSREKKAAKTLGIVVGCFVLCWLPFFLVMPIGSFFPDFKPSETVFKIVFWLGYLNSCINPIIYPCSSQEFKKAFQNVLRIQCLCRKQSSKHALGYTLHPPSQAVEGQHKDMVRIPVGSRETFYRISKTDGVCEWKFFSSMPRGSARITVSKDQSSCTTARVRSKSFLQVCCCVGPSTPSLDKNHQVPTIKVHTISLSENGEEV
Experimental: as §1
The construct involved ligating three partial overlapping fragments: a 5′ 0.6 kb HincII genomic clone, a central 1.8 EcoRI hippocampal cDNA clone, and a 3′ 0.6Kb PstI genomic clone. The hippocampal cDNA fragment overlaps with the 5′ and 3′ genomic clones so that the HincII and PstI sites at the 5′ and 3′ ends of the cDNA clone, respectively, were utilized for ligation. This full-length clone was cloned into the KpnI site of the expression vector, using the 5′ and 3′ KpnI sites of the fragment, derived from vector (i.e., pBluescript) and 3′-untranslated sequences, respectively. Stable cell lines were selected as described above.
as §2

human α1d receptor = molecular target: T3, human α1d receptor (Homo sapiens, UniProt P25100); assay: Radioligand binding assay at cloned human α1d adrenergic receptor; conditions: [3H]prazosin 0.5 nM, membrane preparations of transfected LM(tk−) cells, read-out: hα1d Ki
T3 construct: host or cells: LM(tk−) cells, membrane preparation
T3 sequence (P25100 1-572): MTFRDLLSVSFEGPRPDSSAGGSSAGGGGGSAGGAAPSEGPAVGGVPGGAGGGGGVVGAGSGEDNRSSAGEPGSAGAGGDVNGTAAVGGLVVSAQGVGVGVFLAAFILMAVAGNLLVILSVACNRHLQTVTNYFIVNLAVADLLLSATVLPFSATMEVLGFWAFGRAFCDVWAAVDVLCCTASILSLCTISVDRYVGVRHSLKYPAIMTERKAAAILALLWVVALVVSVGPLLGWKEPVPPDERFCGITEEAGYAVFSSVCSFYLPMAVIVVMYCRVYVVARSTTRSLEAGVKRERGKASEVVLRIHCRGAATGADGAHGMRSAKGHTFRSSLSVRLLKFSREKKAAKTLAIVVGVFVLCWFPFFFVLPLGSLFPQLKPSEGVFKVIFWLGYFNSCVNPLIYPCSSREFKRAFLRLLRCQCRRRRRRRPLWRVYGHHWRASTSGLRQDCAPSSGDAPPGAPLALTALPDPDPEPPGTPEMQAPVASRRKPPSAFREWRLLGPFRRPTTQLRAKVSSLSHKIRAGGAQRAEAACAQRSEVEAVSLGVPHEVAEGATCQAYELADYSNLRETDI
Experimental: as §1
The cells were grown, in a controlled environment (37° C., 5% CO2), as monolayers in Dulbecco's modified Eagle's Medium (GIBCO, Grand Island, N.Y.) containing 25 mM glucose and supplemented with 10% bovine calf serum, 100 units/ml penicillin g, and 100 μg/ml streptomycin sulfate.
as §2

| melting point [°C] | Ki (human α1b receptor) [nM] | Ki (human α1a receptor) [nM] | Ki (human α1d receptor) [nM] | SMILES |
| --- | --- | --- | --- | --- |
| 191 to 194 | 1460 | 2.6 | 4200 | CC1OCC(=O)N(C(=O)NCCCN2CCC(C#N)(c3ccccc3)CC2)C1c1ccc(F)c(F)c1 (single isomer, unassigned; (+)) [Compound 14] |
| – | 246 | 12.6 | 204 | N#CC1(c2ccccc2)CCC(NCCNC(=O)N2C(=O)COCC2c2ccc(F)c(F)c2)CC1 (centres unmarked) [Compound 7] |
| – | 464 | 3.8 | 580 | CC1(C)OCC(=O)N(C(=O)NCCCN2CCC(c3ccccn3)CC2)C1c1ccc(F)c(F)c1 (centres unmarked) [Compound 17, N-4-[3-{4-(2-pyridyl}piperidino)propyl]-3-(3,4-difluorophenyl)-2,2-dimethyl-5-oxo-4-morpholinecarboxamide hydrochloride] |

Further lines, the compound ahead of its results:

| SMILES | melting point [°C] | Ki (human α1b receptor) [nM] | Ki (human α1a receptor) [nM] | Ki (human α1d receptor) [nM] |
| --- | --- | --- | --- | --- |
| COc1ccc(F)cc1C1(c2ccccc2)CCN(CCCNC(=O)N2C(=O)COCC2c2ccc(F)c(F)c2)CC1 (single isomer, unassigned; (+)) (as salt: HCl) [Compound 1, (+)-3-(3,4-Difluorophenyl)-5-oxo-morpholine-4-carboxylic acid-{3-[4-(5-fluoro-2-methoxyphenyl)-4-phenyl-piperidin-1-yl}-propyl}-amide] | 110 to 113 | – | – | – |
| COc1ccc(F)cc1C1(c2ccccc2)CCN(CCCNC(=O)N2C(=O)COCC2c2ccc(F)c(F)c2)CC1 (single isomer, unassigned; (+)) [Compound 1, (+)-3-(3,4-Difluorophenyl)-5-oxo-morpholine-4-carboxylic acid-{3-[4-(5-fluoro-2-methoxyphenyl)-4-phenyl-piperidin-1-yl}-propyl}-amide] | – | 244 | 1.6 | 307 |
| NC(=O)c1ccccc1N1CCN(CCCNC(=O)N2C(=O)COCC2c2ccc(F)c(F)c2)CC1 (centres unmarked) [Compound 4, 3-(3,4-Difluoro-phenyl)-5-oxo-morpholine-4-carboxylic acid-{3-[4-(2-carboxamido)-phenyl-piperiazin-1-yl]-propyl}-amide] | – | 3630 | 32 | 3160 |
